Test results published in ChEMBL document CHEMBL1134011, “LY294002-geldanamycin heterodimers as selective inhibitors of the PI3K and PI3K-related family” (Bioorg Med Chem Lett, 2001).

How the values were obtained:
[1] = Inhibition of Phoshoinositol 3 kinase; design: species or system Homo sapiens
[2] = Inhibition of Phoshoinositol 3 kinase from MCF-7 breast cancer cells; format: cell-based, Homo sapiens; conditions: mcf7
[3] = target: T1, DNA-dependent protein kinase catalytic subunit (Homo sapiens, UniProt P78527); assay: Inhibition of DNA dependent protein kinase activity without hsp90 alpha protein
T1 sequence (P78527 whole entry): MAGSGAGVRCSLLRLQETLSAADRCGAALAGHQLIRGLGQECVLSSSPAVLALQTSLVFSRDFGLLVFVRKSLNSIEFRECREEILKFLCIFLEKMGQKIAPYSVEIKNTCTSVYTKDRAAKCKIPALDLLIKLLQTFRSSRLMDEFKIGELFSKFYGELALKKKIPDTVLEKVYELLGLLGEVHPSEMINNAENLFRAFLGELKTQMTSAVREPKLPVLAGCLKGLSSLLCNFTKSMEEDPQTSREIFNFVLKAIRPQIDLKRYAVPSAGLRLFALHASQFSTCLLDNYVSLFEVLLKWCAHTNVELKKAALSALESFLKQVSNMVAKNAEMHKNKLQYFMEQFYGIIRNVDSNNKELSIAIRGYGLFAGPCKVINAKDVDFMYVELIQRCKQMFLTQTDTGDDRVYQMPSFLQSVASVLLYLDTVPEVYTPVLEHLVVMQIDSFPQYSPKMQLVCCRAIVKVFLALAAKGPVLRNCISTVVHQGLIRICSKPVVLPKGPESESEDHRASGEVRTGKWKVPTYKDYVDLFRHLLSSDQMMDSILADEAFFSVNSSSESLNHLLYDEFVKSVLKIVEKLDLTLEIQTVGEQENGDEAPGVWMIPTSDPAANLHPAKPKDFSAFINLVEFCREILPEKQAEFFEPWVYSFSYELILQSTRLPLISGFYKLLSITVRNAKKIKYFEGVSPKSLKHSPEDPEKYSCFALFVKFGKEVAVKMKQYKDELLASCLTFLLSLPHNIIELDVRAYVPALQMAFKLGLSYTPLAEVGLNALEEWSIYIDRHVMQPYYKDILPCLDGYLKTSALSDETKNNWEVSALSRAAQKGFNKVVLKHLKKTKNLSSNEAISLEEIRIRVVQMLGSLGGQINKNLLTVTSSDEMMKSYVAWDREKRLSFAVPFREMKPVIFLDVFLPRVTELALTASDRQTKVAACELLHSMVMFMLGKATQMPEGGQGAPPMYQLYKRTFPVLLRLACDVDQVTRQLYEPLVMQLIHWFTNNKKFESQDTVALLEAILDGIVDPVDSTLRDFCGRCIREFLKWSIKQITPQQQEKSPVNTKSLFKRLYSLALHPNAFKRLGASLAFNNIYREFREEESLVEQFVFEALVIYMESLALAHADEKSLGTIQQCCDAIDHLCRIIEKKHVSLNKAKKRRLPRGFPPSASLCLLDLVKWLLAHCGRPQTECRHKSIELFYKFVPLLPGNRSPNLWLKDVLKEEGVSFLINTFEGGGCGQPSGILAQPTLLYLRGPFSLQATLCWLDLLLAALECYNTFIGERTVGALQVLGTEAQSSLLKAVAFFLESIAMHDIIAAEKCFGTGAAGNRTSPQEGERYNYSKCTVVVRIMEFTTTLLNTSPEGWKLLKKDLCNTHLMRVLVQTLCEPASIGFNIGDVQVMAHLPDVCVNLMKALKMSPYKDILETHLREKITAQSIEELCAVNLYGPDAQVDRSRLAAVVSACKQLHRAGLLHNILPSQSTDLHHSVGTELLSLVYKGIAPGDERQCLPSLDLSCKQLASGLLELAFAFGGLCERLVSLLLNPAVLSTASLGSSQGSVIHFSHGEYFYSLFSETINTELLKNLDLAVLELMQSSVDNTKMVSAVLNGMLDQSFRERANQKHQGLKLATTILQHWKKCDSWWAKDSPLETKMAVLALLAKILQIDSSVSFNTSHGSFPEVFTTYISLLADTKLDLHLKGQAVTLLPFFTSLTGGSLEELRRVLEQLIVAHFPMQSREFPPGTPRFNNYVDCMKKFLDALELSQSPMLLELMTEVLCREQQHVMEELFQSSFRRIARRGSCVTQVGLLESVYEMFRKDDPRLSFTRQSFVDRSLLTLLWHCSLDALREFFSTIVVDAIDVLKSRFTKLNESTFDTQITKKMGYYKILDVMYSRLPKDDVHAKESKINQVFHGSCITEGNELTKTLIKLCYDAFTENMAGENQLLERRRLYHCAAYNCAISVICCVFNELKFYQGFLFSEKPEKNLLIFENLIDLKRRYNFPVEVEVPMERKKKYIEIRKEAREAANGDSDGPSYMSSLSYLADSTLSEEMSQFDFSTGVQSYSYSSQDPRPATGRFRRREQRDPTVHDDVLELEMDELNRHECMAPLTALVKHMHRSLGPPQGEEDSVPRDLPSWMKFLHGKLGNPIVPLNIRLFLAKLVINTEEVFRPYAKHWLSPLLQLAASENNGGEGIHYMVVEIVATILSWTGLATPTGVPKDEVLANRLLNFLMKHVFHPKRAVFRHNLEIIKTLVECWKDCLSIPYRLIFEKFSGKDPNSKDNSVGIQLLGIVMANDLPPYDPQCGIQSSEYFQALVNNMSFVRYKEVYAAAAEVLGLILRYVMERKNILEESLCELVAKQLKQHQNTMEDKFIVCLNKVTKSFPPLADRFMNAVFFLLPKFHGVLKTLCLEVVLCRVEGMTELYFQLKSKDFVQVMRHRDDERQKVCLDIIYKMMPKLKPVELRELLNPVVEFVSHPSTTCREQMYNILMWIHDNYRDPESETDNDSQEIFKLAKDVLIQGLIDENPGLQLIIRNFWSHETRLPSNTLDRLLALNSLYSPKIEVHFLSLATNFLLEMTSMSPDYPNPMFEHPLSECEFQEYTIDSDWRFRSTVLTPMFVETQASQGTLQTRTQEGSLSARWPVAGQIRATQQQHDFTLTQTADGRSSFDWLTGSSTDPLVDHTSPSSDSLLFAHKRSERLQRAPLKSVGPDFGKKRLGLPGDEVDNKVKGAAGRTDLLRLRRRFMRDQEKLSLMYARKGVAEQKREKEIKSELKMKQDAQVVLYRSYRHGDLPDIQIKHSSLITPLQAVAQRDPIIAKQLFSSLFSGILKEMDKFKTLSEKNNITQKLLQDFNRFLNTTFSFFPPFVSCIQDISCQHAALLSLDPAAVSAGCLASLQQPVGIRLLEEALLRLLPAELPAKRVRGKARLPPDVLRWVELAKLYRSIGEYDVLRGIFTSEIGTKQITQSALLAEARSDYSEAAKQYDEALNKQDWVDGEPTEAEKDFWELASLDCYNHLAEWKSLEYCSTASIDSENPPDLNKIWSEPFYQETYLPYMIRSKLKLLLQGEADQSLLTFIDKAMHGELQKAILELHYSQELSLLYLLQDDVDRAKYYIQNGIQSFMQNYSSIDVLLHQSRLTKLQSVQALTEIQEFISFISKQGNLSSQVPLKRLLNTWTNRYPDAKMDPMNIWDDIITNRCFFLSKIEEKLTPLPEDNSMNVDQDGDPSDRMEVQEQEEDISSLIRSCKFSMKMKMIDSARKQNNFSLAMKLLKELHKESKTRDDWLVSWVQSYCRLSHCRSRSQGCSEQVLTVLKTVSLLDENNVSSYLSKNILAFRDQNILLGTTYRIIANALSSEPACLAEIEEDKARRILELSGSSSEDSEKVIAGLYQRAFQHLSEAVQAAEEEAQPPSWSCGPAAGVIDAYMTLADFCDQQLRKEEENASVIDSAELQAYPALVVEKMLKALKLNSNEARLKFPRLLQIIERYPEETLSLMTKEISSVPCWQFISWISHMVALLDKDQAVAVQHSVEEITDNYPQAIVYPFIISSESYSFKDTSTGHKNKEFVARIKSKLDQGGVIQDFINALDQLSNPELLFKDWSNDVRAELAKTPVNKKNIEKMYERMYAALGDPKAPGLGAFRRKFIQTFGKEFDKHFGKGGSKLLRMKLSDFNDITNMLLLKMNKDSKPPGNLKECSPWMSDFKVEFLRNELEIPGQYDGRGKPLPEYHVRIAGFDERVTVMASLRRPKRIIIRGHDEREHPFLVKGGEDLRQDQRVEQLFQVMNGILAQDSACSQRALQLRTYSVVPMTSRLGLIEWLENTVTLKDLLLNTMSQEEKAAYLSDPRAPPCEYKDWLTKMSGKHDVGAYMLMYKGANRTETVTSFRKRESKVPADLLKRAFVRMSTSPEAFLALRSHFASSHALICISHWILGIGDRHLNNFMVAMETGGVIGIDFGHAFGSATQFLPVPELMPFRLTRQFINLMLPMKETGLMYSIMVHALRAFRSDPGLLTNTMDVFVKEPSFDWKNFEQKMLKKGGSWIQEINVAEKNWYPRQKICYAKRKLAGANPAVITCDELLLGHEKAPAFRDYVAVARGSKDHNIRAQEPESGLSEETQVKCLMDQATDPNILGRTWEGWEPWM

[4] = target: Heat shock protein HSP 90-alpha (Homo sapiens, UniProt P07900); assay: Competitive binding towards Heat shock protein HSP 90-alpha
[5] = target: T1, DNA-dependent protein kinase catalytic subunit; assay: Inhibition of DNA dependent protein kinase with hsp90 alpha protein

Row | SMILES | IC50 [1] [µM] | IC50 [2] [µM] | IC50 [3] [µM] | EC50 [4] [µM] | IC50 [5] [µM]
1 | O=c1cc(N2CCOCC2)oc2c1ccc1ccccc12 | 6 | – | – | – | –
2 | CO[C@H]1/C=C\C=C(/C)C(=O)NC2=CC(=O)C(NCCOCCOc3ccc4c(=O)cc(N5CCOCC5)oc4c3C)=C(C[C@@H](C)C[C@H](OC)[C@H](O)[C@@H](C)/C=C(\C)[C@@H]1OC(N)=O)C2=O | – | 70 | 12.2 | > 50 | –
3 | CO[C@H]1/C=C\C=C(/C)C(=O)NC2=CC(=O)C(NCCOCCOc3ccc4c(=O)cc(N5CCOCC5)oc4c3)=C(C[C@@H](C)C[C@H](OC)[C@H](O)[C@@H](C)/C=C(\C)[C@@H]1OC(N)=O)C2=O | – | 85 | 33 | 16 | –
4 | CO[C@H]1/C=C\C=C(/C)C(=O)NC2=CC(=O)C(NCCCCOc3ccc4c(=O)cc(N5CCOCC5)oc4c3)=C(C[C@@H](C)C[C@H](OC)[C@H](O)[C@@H](C)/C=C(\C)[C@@H]1OC(N)=O)C2=O | – | 200 | 13.9 | 10 | –
5 | C=CCNC1=C2C[C@@H](C)C[C@H](OC)[C@H](O)[C@@H](C)/C=C(\C)[C@H](OC(N)=O)[C@@H](OC)/C=C\C=C(/C)C(=O)NC(=CC1=O)C2=O [TANESPIMYCIN] | – | > 500 | > 40 | – | –
6 | CO[C@H]1/C=C\C=C(/C)C(=O)NC2=CC(=O)C(NCCCOc3ccc4c(=O)cc(N5CCOCC5)oc4c3)=C(C[C@@H](C)C[C@H](OC)[C@H](O)[C@@H](C)/C=C(\C)[C@@H]1OC(N)=O)C2=O | – | > 500 | 28 | 26 | –
7 | CO[C@H]1/C=C\C=C(/C)C(=O)NC2=CC(=O)C(NCCCCCCOc3ccc4c(=O)cc(N5CCOCC5)oc4c3)=C(C[C@@H](C)C[C@H](OC)[C@H](O)[C@@H](C)/C=C(\C)[C@@H]1OC(N)=O)C2=O | – | > 500 | 6.1 | 4 | –
8 | CO[C@H]1/C=C\C=C(/C)C(=O)NC2=CC(=O)C(NCCCCCOc3ccc4c(=O)cc(N5CCOCC5)oc4c3)=C(C[C@@H](C)C[C@H](OC)[C@H](O)[C@@H](C)/C=C(\C)[C@@H]1OC(N)=O)C2=O | – | 310 | 10 | 2.5 | 5

Other lines, results leading:

Row | IC50 [1] [µM] | IC50 [2] [µM] | IC50 [3] [µM] | EC50 [4] [µM] | IC50 [5] [µM] | SMILES
9 | – | 28 | 1.75 | 28 | – | CO[C@H]1/C=C\C=C(/C)C(=O)NC2=CC(=O)C(NCCCCCCCCOc3ccc4c(=O)cc(N5CCOCC5)oc4c3C)=C(C[C@@H](C)C[C@H](OC)[C@H](O)[C@@H](C)/C=C(\C)[C@@H]1OC(N)=O)C2=O
10 | – | 3 | 3 | 7 | – | CO[C@H]1/C=C\C=C(/C)C(=O)NC2=CC(=O)C(NCC#Cc3cccc4c(=O)cc(N5CCOCC5)oc34)=C(C[C@@H](C)C[C@H](OC)[C@H](O)[C@@H](C)/C=C(\C)[C@@H]1OC(N)=O)C2=O
11 | – | 13.5 | 13.4 | > 50 | – | CO[C@H]1/C=C\C=C(/C)C(=O)NC2=CC(=O)C(NCCCC#Cc3cccc4c(=O)cc(N5CCOCC5)oc34)=C(C[C@@H](C)C[C@H](OC)[C@H](O)[C@@H](C)/C=C(\C)[C@@H]1OC(N)=O)C2=O
12 | – | 14 | 4.3 | > 50 | – | O=c1cc(N2CCOCC2)oc2ccccc12
13 | – | 5 | 3.7 | 46 | – | CO[C@H]1/C=C\C=C(/C)C(=O)NC2=CC(=O)C(NCCCCCCCOc3ccc4c(=O)cc(N5CCOCC5)oc4c3C)=C(C[C@@H](C)C[C@H](OC)[C@H](O)[C@@H](C)/C=C(\C)[C@@H]1OC(N)=O)C2=O
